Data as given in patent publication US20060166934A1, “Composition comprising phytosphingosine derivatives for apoptosis induction” (Tae-Yoon Kim, priority 2002, published 2006).

How the values were obtained:
Chk1 = test: Immunoblot analysis of Chk1; assay type: cell-based, human; conditions: 30 μM, FIGS. 12 and 13
Description: In the confirmation of apoptosis-related proteins, the immunoblot analysis is performed in order to look into the effects of the compositions of the present invention on the expression of caspase-3, p53, and Chk1 proteins related to the induction of apoptosis. HaCaT cells are cultured on a 100-mm dish and collected at the indicative time. The proteins are extracted by adding 500 μl of RIPA lysis buffer (1% Nonidet P-40, 1% sodium deoxycholate, 0.1% SDS, […], 0.01 M sodium phosphate, pH 7.2, 2 mM EDTA, 50 mM sodium fluoride and 0.2 mM sodium vanadate), and the concentration is measured by using the Bradford method. 1 Extracted proteins is electrophoresed on 12% polyacrylamide gel, and they are transferred to the nitrocellulose membrane. The membrane blocked with 5% non-fat milk is reacted with the primary antibodies (caspase-3, p53, and Chk1), washed, and reacted with the secondary HRP-conjugated antibody. The intensity of proteins is analyzed by using the ECL kit.

[1] = system: A431 cells, human skin cancer cell line; test: MTT assay, cytotoxicity in human skin cancer cell line; assay type: cell-based; conditions: for Cell viability: A431, con = 100, in %
Description: (§1) Firstly, the cytotoxicity is measured by the MTT assay. Phytosphingosine (PS), phytosphingosine-HCl (PS-HCl), C6-phytosphingosine (C6-PS), CLA-phytosphingosine (CLA-PS), tetraacetyl phytosphingosine (TAPS), and N-acetyl phytosphingosine (NAPS) are dissolved into DMSO to have the final concentration of 1-100 μM.
(§2) In order to study the effects of the compositions of the present invention on the cytotoxicity in the human keratinocyte cell line HaCaT cells, the cell viability is analyzed by the MTT (3-[4,5-dimethylthiazol-2-yl]-2,5-diphenyltetrazolium bromide) assay. HaCaT cells are supplied by Professor N. Fuseng of German Cancer Research in Germany. HaCaT cells are seeded in a density of 1×10^6 cells in a […] and cultured in DMEM (Dulbecco's Modified Eagle Medium) containing 10% fetal bovine serum (FBS, GIBCO), 100 units/ml penicillin, and 100 μg/ml streptomycin for 48 hours. They are treated with trypsin and 1-2×10^4 cells per well are seeded again in a 96-well plate by using a serum-free culture medium, about 3 hours after which they are cultured by treatment with phytosphingosine derivatives. After they are cultured for 24 hours, the MTT reagent is added at a concentration of 2 mg/ml, cultured for 4 hours, suspended in DMSO after removing the culture medium completely in order to measure O.D. at 540 nm. C2-ceramide is used for comparison.
In order to study the effects of the compositions of the present invention on the cytotoxicity in A431 cells, human skin cancer cell line, the MTT assay is used. The method of cell culture and MTT assay are the same as those in the above method. C2-ceramide is used for comparison.

[2] = system: peripheral blood mononuclear cells (PBMC); test: MTT assay, cytotoxicity in peripheral blood mononuclear cells; assay type: cell-based, human; conditions: FIG. 3
Description: The effects of the composition of the present invention on the cytotoxicity in immune cells (T cells, B cells, macrophages, monocytes, etc.) obtained from human blood were examined. The blood was obtained from healthy volunteers and PBMC from the blood by mechanical aggregation method. And mononuclear cells containing T cells, B cells, macrophages and monocytes were isolated from single cells by density gradient centrifugation method using Ficoll Hypaque. Briefly, single cells were treated with PBS and overlayed on Ficoll Hypaque and centrifuged at 1500 rpm for 30 min. After centrifugation, the cells around the boundary of the Ficoll-Hapaque were collected and washed three times with PBS. […] And RPMI with 10% of serum was used as a medium. The isolated cells were cultured for 24 hours in the presence of 1, 10, 50 and 100 μM of NAPS, TAPS, and PS to examine the effect of cytotoxicity, i.e. the degree of proliferation of the cells. C2-ceramide was used as control.

[3] = system: Th1 cells activation against allogenic cells (PBMC); test: Reactions among allogenic cells, Th1 cells activation, MTT assay; assay type: cell-based, human; conditions: FIG. 5
Text: Whether the composition of the present invention has a suppressive effect on the Th1 cells activation by allogenic cells in immune reation was examined.
PBMC obtained from different volunteers as described in the above 5 were used for responder cells and stimulator cells respectively. PBMC for stimulator cells were used after X-ray irradiation (3000 rad) to inhibit the proliferation of stimulator cells.
Each 2×10^5 responder cells and stimulator cells were mixed with each other and cultured for 5 days on the 96-well plate. And RPMI with 10% of serum was used as a medium.
The above cells were cultured for 24 hours in the presence of 1, 10, 50 and 100 μM of NAPS, TAPS, and PS to examine the proliferation of the cells.
C2-ceramide was used as control.

[4] = system: human keratinocyte cell line HaCaT cells; test: MTT assay, cytotoxicity in human keratinocyte cell line; assay type: cell-based; conditions: for Cell viability: 24 hours, con = 100, in %
Description: as §1, §2

caspase-3 = test: Immunoblot analysis of active caspase-3; assay type: cell-based, human; conditions: HaCaT, FIG. 11; for time to maximum active caspase-3: after treatment; for maximum increase of active caspase-3 (expression of induction): immunoblot
Description: In the confirmation of apoptosis-related proteins, the immunoblot analysis is performed in order to look into the effects of the compositions of the present invention on the expression of caspase-3, p53, and Chk1 proteins related to the induction of apoptosis.
HaCaT cells are cultured on a 100-mm dish and collected at the indicative time. The proteins are extracted by adding 500 μl of RIPA lysis buffer (1% Nonidet P-40, 1% sodium deoxycholate, 0.1% SDS, […], 0.01 M sodium phosphate, pH 7.2, 2 mM EDTA, 50 mM sodium fluoride and 0.2 mM sodium vanadate), and the concentration is measured by using the Bradford method. 1
Extracted proteins is electrophoresed on 12% polyacrylamide gel, and they are transferred to the nitrocellulose membrane. The membrane blocked with 5% non-fat milk is reacted with the primary antibodies (caspase-3, p53, and Chk1), washed, and reacted with the secondary HRP-conjugated antibody. The intensity of proteins is analyzed by using the ECL kit.

Question: For tetraacetyl phytosphingosine [TAPS], which Chk1 protein (Chk1; at 8-hour) is on record?
Answer: not changed greatly

Question: And the Chk1 protein (Chk1; at 24 hour)?
Answer: rapid reduction

Question: What about the Cell viability ([1]; 3 μM) of the same compound?
Answer: 113 ± 11.2

Question: And the Cell viability ([1]; 10 μM)?
Answer: 83 ± 13.9

Question: What about the Cell viability ([1]; 30 μM) of the same compound?
Answer: 12 ± 1.7

Question: What about the Cell viability ([1]; 50 μM) of the same compound?
Answer: 5 ± 1.2

Question: What about the “concentration that shows the strong cytotoxicity” value ([2]; human PBMC) of the same compound?
Answer: 50 µM

Question: What about the “cytotoxicity to PBMC” value ([2]; up to 100 μM, 24 hours) of the same compound?
Answer: strong cytotoxicity

Question: What about the “suppressive effect on Th1 cells activation against allogenic cells” value ([3]; 50 μM) of the same compound?
Answer: suppress completely

Question: And the “concentration showing a suppressive effect on Th1 cells activation against allogenic cells” value [3]?
Answer: 50 μM

Question: What about the Cell viability ([4]; 1 μM, HaCaT) of the same compound?
Answer: 94 ± 0.1

Question: And the Cell viability ([4]; 3 μM, HaCaT)?
Answer: 93 ± 2.9

Question: What about the Cell viability ([4]; 10 μM, HaCaT) of the same compound?
Answer: 76 ± 1.4

Question: And the Cell viability ([4]; 30 μM, HaCaT)?
Answer: 17 ± 1.1

Question: And the cytotoxicity ([4]; 30 μM, HaCaT)?
Answer: 83%

Question: What about the “time for which increased active caspase-3 is maintained” value (caspase-3) of the same compound?
Answer: 24 h

Question: And the “time to maximum active caspase-3” value (caspase-3)?
Answer: ≤ 3 h

Question: And the “maximum increase of active caspase-3 (expression of induction)” value (caspase-3)?
Answer: 5 folds

Question: Which cytotoxicity ([1]; human, 24 h, 50 μM) does the source give for `CCCCCCCCCCCCCC[C@@H](O)[C@@H](O)[C@H](CO)NC(C)=O` [NAPS, N-acetyl phytosphingosine] here?
Answer: 95-98%

Question: And the “concentration showing a suppressive effect on Th1 cells activation against allogenic cells” value [3]?
Answer: 50 μM

Question: And the cytotoxicity ([4]; human, 24 h, 30 μM)?
Answer: 83%

Question: And the “time after treatment at which cleavage to active caspase-3 is increased significantly” value (caspase-3)?
Answer: 30 min

Question: And the “time for which increased active caspase-3 is maintained” value (caspase-3)?
Answer: 12 h

Question: What about the “time to maximum active caspase-3” value (caspase-3) of the same compound?
Answer: ≤ 3 h

Question: What about the “maximum increase of active caspase-3 (expression of induction)” value (caspase-3) of the same compound?
Answer: 6 folds
